In US20180125805A1, “PROPHYLACTIC/THERAPEUTIC AGENT FOR VIRUS INFECTIONS WHICH COMPRISES ALA COMPOUND” (SBI Pharmaceuticals Co., Ltd., priority 2015, published 2018):
Where “and” joins values, the source holds several entries; their conditions need not be identical. Identical values can stand only once.

System: Hepatitis B virus (HBV) genotype C
Test: HBV DNA content in culture supernatants of HBV-infected PXB hepatocytes, quantitative PCR with TaqMan probe
Type: cell-based, human hepatitis B virus
Details: for DNA content of HBV in the culture supernatants: PXB hepatocytes, replicates No. 1-3
Description: PXB hepatocytes prepared from “PXB-Mouse (registered trademark)” (manufactured by PhoenixBio) were used as test samples to examine the effect of a change in virus load by adding 5-ALA or the like to a medium. […] Therefore, PXB-Mouse is utilized as a human in vivo prediction model of hepatitis virus infections in pharmacokinetic studies.
Hepatitis B virus (HBV) genotype C was suspended in dHCGM medium (DMEM+10% FBS, 44 mM NaHCO3, 15 μg/mL L-proline, 0.25 μg/mL insulin, 50 […], 5 ng/mL EGF, 0.1 mM Asc-2P, 2% DMSO) containing 4% polyethylene glycol in the virus load of 2×10^6 per well to give 250 μL/well of a HBV infection medium. The sequence of HBV genotype C is disclosed in a public data bank such as GenBank and the accession number is AB246345.1.
5-ALA and sodium ferrous citrate (SFC) were blended in dHCGM medium at the concentrations shown in Table 1 below to prepare 250 μL each of test media. As a positive control medium, a medium prepared by dissolving 2.5 nM entecavir (manufactured by Santa Cruz Biotechnology, Inc.) in dHCGM medium was used.
PXB hepatocytes, which are primary cultured liver cells isolated by a two-step collagenase perfusion procedure (Yamasaki C, et al. Drug Metab Pharmacokinet. 2010, 25:539-550.) from 12- to 16-week-old PXB mice having a body weight of 11 g or more, were suspended in Dulbecco's modified Eagle's medium (DMEM) with 10% fetal bovine serum (FBS) (DMEM+10% FBS) containing 100 IU/mL penicillin G, 100 μg/mL streptomycin and 20 mM HEPES, seeded in a 24-well plate coated with type I collagen at a density of 4×10^5 cells/well, and incubated at 37° C. under 5% CO2. The next day, the medium was removed, and 500 μL of DMEM+10% FBS was then added to each well. Thereafter, the medium was removed again, 250 μL of the above-mentioned HBV infection medium or a non-infection medium and 250 μL each of the above-mentioned test medium were added to each well to provide 500 μL each of evaluation media. The evaluation media were incubated at 37° C. under 5% CO2 for 20 to 28 hours. On day 1, 2, 7, 12 and 17 after HBV virus infection, the media were replaced by 500 μL each of the above-mentioned evaluation media. On day 12, 17 and 22 after the virus infection, culture supernatants were collected and the DNA content of HBV in the supernatants was determined by a quantitative PCR assay with TaqMan probe. The incubation period after the virus infection was 22 days. The results are shown in the following Tables 2 and 3 and the graph of FIG. 1. The ordinate of FIG. 1 indicates the DNA content of HBV in the culture supernatants.

NCC(=O)CCC(=O)O [ALA, 5-aminolevulinic acid]
DNA content of HBV in the culture supernatants (ALA 1 mM, day 12 after virus infection): 6.0 log copies/mL and 6.1 log copies/mL and 5.8 log copies/mL | DNA content of HBV in the culture supernatants (ALA 1 mM, day 17 after virus infection): 6.0 log copies/mL (2×) and 5.8 log copies/mL | DNA content of HBV in the culture supernatants (ALA 1 mM, day 22 after virus infection): 6.1 log copies/mL and 5.9 log copies/mL and 6.0 log copies/mL

C=C1[C@H](CO)[C@@H](O)C[C@@H]1n1cnc2c(=O)[nH]c(N)nc21 [ETV, entecavir, reference compound]
DNA content of HBV in the culture supernatants (ETV 2.5 nM (positive control), day 12 after virus infection): 4.4 log copies/mL | DNA content of HBV in the culture supernatants (ETV 2.5 nM (positive control), day 17 after virus infection): 4.2 log copies/mL and 4.8 log copies/mL and 4.1 log copies/mL | DNA content of HBV in the culture supernatants (ETV 2.5 nM (positive control), day 22 after virus infection): 4.4 log copies/mL and 4.0 log copies/mL and 3.9 log copies/mL

sodium ferrous citrate [SFC]
DNA content of HBV in the culture supernatants (SFC 0.5 mM, day 12 after virus infection): 6.1 log copies/mL (2×) and 6.2 log copies/mL | proliferation of HBV virus (FIG. 1) (SFC 500 μM, day 12 and 17 after the virus infection, P<0.05): significantly inhibited | DNA content of HBV in the culture supernatants (SFC 0.5 mM, day 17 after virus infection): 6.3 log copies/mL and 6.4 log copies/mL (2×) | DNA content of HBV in the culture supernatants (SFC 0.5 mM, day 22 after virus infection): 6.5 log copies/mL
